Source: patent US20230082929A1, “METHODS OF GENERATING AND USING SENESCENT-INDUCED CELLS FOR TREATMENT OF CANCER AND COMPOSITIONS RELATING THERETO” (The Wistar Institute of Anatomy and Biology, priority 2020, published 2023)

Legend:
2′3′-cGAMP = 2′3′-cGAMP ELISA in IMR90 cells; assay type: cell-based, human; conditions: senescent IMR90 cells with HMGB2 knockdown
Procedure: 2′ 3′-cGAMP ELISA Kit (Cayman chemical. Cat. No:501700) was used to analyze the endogenous level of 2′ 3′-cGAMP following the manufacturer's instructions. 1×10^5 IMR90 cells were incubated in 200 μL lysis buffer (ThermoFisher, Cat. No: 78501) on ice for 30 minutes. The 2′ 3′-cGAMP ELISA was performed following the manufacturer's instructions.

cGAS = cGAS localization into CCF by immunofluorescence; assay type: cell-based, human; conditions: HMGB2 knockout cells
Procedure: Cells were fixed with 4% paraformaldehyde (PFA) for 15 mins at room temperature followed by permeabilization with 0.2% Triton X-100 in PBS for 5 min. For DNase I digestion, after fixation and permeabilization, cells were treated with 500 units/mL RNase-Free DNase I (Qiagen, Cat. No: 79254) for one hour at 37° C. After blocking with 1% BSA in PBS, cells were incubated with primary antibody overnight at 4° C. and Alexa-Fluor conjugated secondary antibody (Life Technologies). Fluorescent images were captured using Leica TCS SP5 II scanning confocal microscope.

SASP factors = assay: Secreted cytokine antibody array, IMR90 cells; assay type: cell-based, human; conditions: HMGB2 knockdown senescent IMR90 cells
Procedure: For cytokine-array analysis, cells were washed once and cultured in serum-free medium for 48 hours (Nacarelli et al., 2019). Conditioned medium was filtered (0.2 μm) and then subjected to cytokine-array assay using Human Cytokine Array C1 kit (RayBiotech. Cat. No: AAH-CYT-1-2) following the manufacturer's guidelines. After collection of conditional media, the cell number of each sample was counted. The intensities of array dots were visualized on film after incubation with SuperSignal West Pico PLUS Chemiluminescent Substrate (Thermo Fisher Scientific. Cat. No: 34580). The integrated density was measured using Image J and normalized to the cell number from which the conditioned medium was generated.

[1] = tested on: ID8-Defb29/Vegf-a ovarian cancer; assay: In vivo orthotopic syngeneic ID8-Defb29/Vegf-a ovarian cancer mouse model
Procedure: For orthotopic syngeneic model, luciferase expressing ID8-Defb29/Vegf-a with inducible shHMGB2 cells were pretreated with 2 μM Cisplatin for 48 hours to induce CCFs. 5×10^6 cells were i.p. injected into the peritoneal cavity of C57BL/6 mouse (female, 6-8 weeks old, CRL/NCI) (Zhu et al., 2016). Animals were randomly assigned to different treatment groups (10 mice/group). The mice in control groups were fed with control rodent diet (Fisher Scientific. Cat. No: 14-726-309). For the HMGB2 knockdown groups, mice were fed with Bio-Serv™ Doxycycline Grain-Based Rodent Diet (Fisher Scientific. Cat. No: 14-727-450) to induce HMGB2 knockdown. Tumor progression was monitored twice a week using a Xenogen IVIS Spectrum in vivo bioluminescence imaging system. Images were analyzed using Live Imaging 4.0 software. Tumor-bearing mice were treated by i.p. injection with isotype control IgG or anti-PD-L1 antibody (Bio X Cell, Cat. No: B7-H1, clone 10 F.9G2, 10 mg kg^-1) every 3 days with or without simultaneous TOP1 inhibitor camptothecin treatment (Selleck Cat. No: S1288; 8 mg kg^-1). For survival analysis, the Wistar Institute IACUC guideline was followed in determining the time for ending the survival experiments (tumor burden exceeds 10% of body weight).

TOP1cc [2] = molecular target: T1, TOP1cc (Homo sapiens, UniProt P11387); assay: TOP1cc induction in CPT-treated IMR90 cells (chromatin fragment extraction, slot blot); assay type: cell-based; set-up: endogenous in cells; host or cells: IMR90 human fibroblasts (senescent or proliferating, with or without shHMGB2); conditions: IMR90 cells treated with two doses of CPT (5 μM or 50 μM, 30 minutes)
T1 sequence (P11387 1-765): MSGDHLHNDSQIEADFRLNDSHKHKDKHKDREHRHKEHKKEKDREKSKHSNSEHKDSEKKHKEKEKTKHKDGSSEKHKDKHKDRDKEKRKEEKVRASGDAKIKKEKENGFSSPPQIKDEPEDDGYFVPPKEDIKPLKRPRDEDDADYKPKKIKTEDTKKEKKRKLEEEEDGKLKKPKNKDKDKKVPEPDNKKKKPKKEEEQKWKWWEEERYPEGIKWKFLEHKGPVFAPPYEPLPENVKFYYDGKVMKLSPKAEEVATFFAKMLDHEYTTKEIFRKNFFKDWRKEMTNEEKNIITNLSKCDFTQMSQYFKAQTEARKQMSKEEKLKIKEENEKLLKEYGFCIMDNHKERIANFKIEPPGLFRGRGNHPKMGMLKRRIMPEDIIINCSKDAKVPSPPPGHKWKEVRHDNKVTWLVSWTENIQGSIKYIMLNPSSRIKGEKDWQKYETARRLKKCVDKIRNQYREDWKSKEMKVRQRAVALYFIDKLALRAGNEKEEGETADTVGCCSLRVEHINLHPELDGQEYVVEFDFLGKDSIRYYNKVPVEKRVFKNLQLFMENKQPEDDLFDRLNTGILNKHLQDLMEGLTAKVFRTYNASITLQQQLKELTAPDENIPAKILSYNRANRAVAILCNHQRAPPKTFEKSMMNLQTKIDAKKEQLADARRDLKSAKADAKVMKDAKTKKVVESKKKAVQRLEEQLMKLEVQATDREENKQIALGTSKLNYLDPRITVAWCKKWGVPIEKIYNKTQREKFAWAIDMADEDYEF
Procedure: For chromatin fragments extraction, proliferating IMR90 cells were treated with 5 μM or 50 μM Camptothecin for 30 minutes to induce low or high levels of TOP1cc, respectively. Cells then were incubated with hypotonic buffer (10 mM Tris, pH 7.4, 30 mM NaCl, 3 mM MgCl2, 0.1% NP40), supplemented with protease inhibitor cocktail, on ice for 10 mins (Dou et al., 2017). The cells were then centrifuged at 300×g for 3 mins at 4° C. The supernatant was carefully removed, and the resulting pellets were incubated with benzonase buffer (50 mM Tris pH 7.5, 300 mM NaCl, 0.5% NP40, 2.5 mM MgCl2) with protease inhibitor cocktail, supplemented with 10 U of benzonase (Sigma Cat. No: E1014), on ice, for 30 min. The product was centrifuged again at 300×g for 3 mins at 4° C., and benzonase was inactivated by addition of 15 mM EDTA. The resulting supernatant contains chromatin fragments and soluble nuclear proteins. For the negative controls, buffer without benzonase was used and the resulting supernatant only contains soluble nuclear proteins without chromatin fragments. The product was then diluted 5 times with PBS. Slot blot were performed to confirm the TOP1cc level.
Human Topoisomerase 1 ICE Assay Kit (TopoGEN. Cat. No:TG1020-1) was used to isolate protein-DNA samples which contain TOP1-DNA covalent complex (TOP Ice) for slot blot analysis. […] Quantification was performed using NIH Image J software.

TOP1cc [3] = molecular target: T1, TOP1cc; assay: Slot blot analysis of TOP1cc levels in purified CCF of senescent cells; assay type: cell-based; set-up: endogenous in cells; host or cells: IMR90 human fibroblasts (senescent or proliferating, with or without shHMGB2); OVCAR3 (with or without HMGB2 knockout); conditions: CCF isolated from HMGB2 knockdown or knockout senescent cells (IMR90, OVCAR3)
Procedure: A CCF purification protocol was developed by modifying previous protocols (Shimizu et al., 1996; Ly et al., 2017). Briefly, 500 million senescent cells were collected, resuspended, and incubated in DMEM containing 10 μg/mL cytochalasin B for 30 minutes at 37° C. After wash once with ice-cold PBS, the cell pellet was gently dounce homogenized in ice-cold pre-chilled lysis buffer (10 mM Tris-HCl, 2 mM magnesium acetate, 3 mM CaCl2), 0.32 M sucrose, 0.1 mM EDTA, 1 mM DTT, 0.1% NP-40, 0.15 mM spermine, 0.75 mM spermidine, 10 μg/ml cytochalasin B, pH 8.5, 4° C.) with ten slow strokes of a loose-fitting pestle. Release of nuclei was confirmed by DAPI-staining and microscopy. The homogenate was fixed with 1% formaldehyde for 10 minutes, and mixed well with an equal volume of 1.6M sucrose buffer (10 mM Tris-HCl, 5 mM magnesium acetate, 0.1 mM EDTA, 1 mM DTT, 0.3% BSA, 0.15 mM spermine, 0.75 mM spermidine, pH 8.0, 4° C.). A 10 mL portion of homogenate was layered on the top of sucrose buffer gradient (20 mL and 15 mL containing 1.8M and 1.6M of sucrose, respectively) in a 50 mL tissue culture tube. The tubes were centrifuged at 1200×g for 20 minutes at 4° C. After centrifugation, the upper 3 mL of the gradient was discarded, and the next 15 mL containing CCFs was collected. […] DNA concentration was measured using Nanodrop and 5 μg DNA was used for slot blot analysis.

Compound: CC[C@@]1(O)C(=O)OCc2c1cc1n(c2=O)Cc2cc3ccccc3nc2-1 [CPT, Camptothecin]
- 2′3′-cGAMP levels (2′3′-cGAMP): rescued
- localization of cGAS and TOP1cc into CCF (cGAS): rescue of the localization of cGAS and TOP1cc into CCF
- secretion of SASP factors (antibody array) (SASP factors): restoration of the secretion of SASP factors
- anti-PD-L1 treatment response (tumor growth by luciferase bioluminescence) ([1]; HMGB2 knockdown tumors, CPT 8 mg kg-1 i.p. with anti-PD-L1 antibody 10 mg kg-1 every 3 days): significantly restored the anti-PD-L1 response
- body weight of the treated mice ([1]; anti-PD-L1 antibody-treated group, during treatment period): did not affect the body weight
- survival of mice ([1]; mice bearing HMGB2 knockdown tumors, CPT with anti-PD-L1 antibody): rescued the survival
- TOP1cc induction (TOP1cc [2]): induced TOP1cc in a dose-dependent manner
- TOP1cc levels in CCF (TOP1cc [3]): restored the TOP1cc levels
- TOP1cc levels in CCF (TOP1cc [3]; listed as Camptothecin): Rescue of the decrease in TOP1cc levels
